# Assay results from patent US20020086860A1, “[1,4]Diazepino [6,7,1-jk] carbazoles and derivatives” (American Home Products Corporation, priority 2000, published 2002).
# Counter-ions that a name gives are not always drawn. Like-named read-outs stand apart in the source and are kept apart here.
# Tests used:
# [1] = target: T1, human 5-hydroxytryptamine2C (h5HT2C) receptor (Homo sapiens, UniProt P28335); assay: 5HT2C Receptor Binding Test Procedure ([125I]DOI displacement, CHO cell membranes)
# T1 construct: expressed in transfected cells; host or cells: CHO (Chinese Hamster Ovary) cells; membrane preparation
# T1 sequence (P28335 33-458): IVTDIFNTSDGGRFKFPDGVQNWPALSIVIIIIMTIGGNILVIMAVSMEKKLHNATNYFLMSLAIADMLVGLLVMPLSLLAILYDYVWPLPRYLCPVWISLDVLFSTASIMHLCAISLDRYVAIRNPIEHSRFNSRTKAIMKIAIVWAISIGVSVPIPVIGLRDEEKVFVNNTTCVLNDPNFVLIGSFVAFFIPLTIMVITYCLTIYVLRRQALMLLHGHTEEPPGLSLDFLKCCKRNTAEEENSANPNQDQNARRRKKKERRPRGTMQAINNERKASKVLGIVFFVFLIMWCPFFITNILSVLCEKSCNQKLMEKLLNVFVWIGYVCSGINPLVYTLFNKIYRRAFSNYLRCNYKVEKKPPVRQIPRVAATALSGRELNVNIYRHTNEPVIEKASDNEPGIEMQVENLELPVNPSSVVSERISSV
# human 5-HT2C receptor = target: T2, human 5-HT2C receptor (Homo sapiens, UniProt P28335); assay: Stimulation of [3H] Inositol Monophosphate production by 5HT2C agonists in transfected CHO cells; conditions: for Emax: CHO, read-out: 5HT2C % Emax (5HT, 100%)
# T2 sequence (P28335 33-458): T1 sequence (P28335 33-458)
# Protocol: One (1) ml of maintenance medium containing 1 μCi/ml myo-[^3H] inositol was added to each well. After 48 hours labeling, the cells were washed once with 0.5 ml DMEM containing 25 mM HEPES and 10 mM LiCl, then preincubated with the medium for 30 min (antagonists were included in this period if tested). At the end of the preincubation, the medium was removed, the cells were then incubated with test compounds (in presence of antagonists if needed) for 30 min. The reaction was terminated by removal of the incubation solution and addition of 0.5 ml ice-cold 5% PCA, followed by 15 to 30 min incubation on ice. 200 μl of 0.5 M Tes/1.5 M K2CO3 was added to each well to neutralize to pH 7, and plates were left on ice for another 15 to 30 min to precipitate all salts. The liquid and solid phases were separated by centrifugation.
# A portion (350 μl) of the upper aqueous phase was applied to Dowex AG-1×8 (formate form, 100-200 mesh) columns. The columns were then washed stepwise with 10 ml of water and 10 ml of 25 mM ammonium formate to remove free myo-[^3H]inositol and deacylated phosphoinositol, respectively. Finally 10 ml of 0.2 M ammonium formate solution was applied to the columns to elute [^3H] inositol monophosphate ([^3H] IP1) directly into scintillation vials. Of this eluate, 1 ml was used to determine radioactivity by scintillation counting.
# A 3-parameter logistic function is used to generate estimate of EC50/IC50.
# male Sprague-Dawley rats = assay: Effects of Compounds on Feeding Behavior in Rats (food intake, 24 hr fast); type: in vivo; conditions: Rattus norvegicus, ip, dose giving 50% reduction in food intake, read-out: ED50 (mg/kg), 5HT2C Food Intake in Rats
# Protocol: Effects of Compounds on Feeding Behavior in Rats
# Eight (8) male Sprague-Dawley rats weighing 150-180 g were separated into individual cages and acclimated to a powdered diet for 2 weeks. During this period and throughout the test procedure, the food cup and the animals were weighed daily. Following the acclimation period, animals were fasted for 24 hours and then injected with either vehicle or one of 4 doses of the test compound. Food intake was assessed at 2 and 24 hours following compound administration. Compounds to be evaluated were injected 1-2× per week until all animals had received all doses of the test compound. The order of doses were chosen using to a modified Latin Square design. Additional studies may be conducted in satieted rats at the start of the dark cycle. Compounds were injected i.p, s.c. or p.o. At the end of the study effects of the test compound on food intake was evaluated using a repeated measures ANOVA. Data were collected were 2 hour food intake (g). Data were subjected to one-way ANOVA with posthoc t-tests to assess group differences. Where appropriate, ED50 values were calculated.
# [2] = system: several animal species and humans; conditions: Cowen et al. 1995; cited from earlier work
# [3] = read-out: Ki value and 95% confidence interval (reference compounds)
compound,measurement,setting,value
"CC1(C)Cc2c(c3cccc4c3n2CCNC4)C(C)(C)C1 [Example 3, 8,8,10,10-Tetramethyl-1,2,3,4,8,9,10,11-octahydro[1,4]diazepino[6,7,1-jk]carbazole]",Ki,[1],73 nM
"CC1(C)CCc2c(c3cccc4c3n2CCNC4)C1 [Example 4, 9,9,Dimethyl-1,2,3,4,8,9,10,11-octahydro[1,4]diazepino[6,7,1-jk]carbazole]",Ki,[1],243 nM
"c1cc2c3c(c1)C1CCCCC1N3CCNC2 (centres unmarked) (as salt: hydrochloride) [Example 2, 1,2,3,4,7b,8,9,10,11,11a-Decahydro-[1,4]diazepino[6,7,1-jk]carbazole]",melting point,,265 to 269 °C
CC[C@@H](CO)NC(=O)[C@@H]1C=C2c3cccc4c3c(cn4C)C[C@H]2N(C)C1 [Methysergide],Ki,[1],6.3 nM
"c1cc2c3c(c1)C1CCCCC1N3CCNC2 (centres unmarked) [Example 2, 1,2,3,4,7b,8,9,10,11,11a-Decahydro-[1,4]diazepino[6,7,1-jk]carbazole]",EC50,human 5-HT2C receptor,207 nM
same,Emax,human 5-HT2C receptor,70%
same,Ki,[1],92 nM
"CCN1CCn2c3c(c4cc(Cl)cc(c42)C1)CCCC3 [Example 9, 6-Chloro-3-ethyl-1,2,3,4,8,9,10,11-octahydro[1,4]diazepino[6,5,4-jk]carbazole]","5HT2C Affinity DOI/Agonist binding, inhibition @ 1 μM",[1],55%
COc1cc(CC(C)N)c(OC)cc1I (centres unmarked) [[^125I] DOI],Kd,"[1]; read-out: dissociation constant, KD of [125I] DOI at the human serotonin 5HT2C receptor, saturation binding with increasing concentrations of [125I] DOI",0.4 nM
"c1cc2c3c(c1)c1c(n3CCNC2)CCCC1 [Example 1, 1,2,3,4,8,9,10,11-Octahydro-[1,4]diazepino[6,5,4-jk]carbazole]",ED50,male Sprague-Dawley rats,20.9 mg/kg
same,EC50,human 5-HT2C receptor,426 nM
same,Emax,human 5-HT2C receptor,90%
CSc1ccc2c(c1)C(N1CCN(C)CC1)Cc1ccccc1S2 (centres unmarked) [Methiothepin],Ki,"[1]; [125I]DOI binding, h5HT2C in CHO membranes, 95% confidence interval in brackets, read-out: Ki value and 95% confidence interval (reference compounds)",4.6 nM
Cc1nc2sccn2c(=O)c1CCN1CCC(=C(c2ccc(F)cc2)c2ccc(F)cc2)CC1 [Ritanserin],Ki,[1]; [3],2 nM
"Clc1cccc(N2CCNCC2)c1 [mCPP, meta-chlorophenylpiperazine]",effect on food intake,[2],decreases food intake
CN1CCN(C2=Nc3ccccc3Oc3ccc(Cl)cc32)CC1 [Loxapine],Ki,[1]; [3],33 nM
"Clc1cc2c3c(c1)c1c(n3CCNC2)CCCC1 [Example 5, 6-Chloro-1,2,3,4,8,9,10,11-octahydro[1,4]diazepino[6,7,1-jk]cabazole]",Ki,[1],358 nM
